# From paper PMC7562719, “Discovery of a CNS penetrant small molecule SMN2 splicing modulator with improved tolerability for spinal muscular atrophy” (Scientific Reports, 2020)
# pEC50: −log10 of the molar value.
# Experiments:
# Format in all cases: cell-based, human
# [1] = tested on: GALC mRNA; assay: qPCR of GALC transcripts in GM03813 fibroblasts; conditions: for Selectivity GALC /FL-SMN2: EC50 of GALC divided by EC1.5× of FL-SMN2; for pEC50: Homo sapiens, Fibroblast, GM03813 fibroblasts, 24 h, 50% total GALC mRNA reduction, 95% CI in brackets
# Procedure: (§1) GM03813 fibroblasts, GM24468-derived MNs, NRK-49F, MDCK, CV-1, or NCMDF cells were plated at a density of 0.5 or 1.5 × 10^4, 4 × 10^4, 5 × 10^3, 5 × 10^3, 8 × 10^3, or 6 × 10^3 cells/well on 96-well plates, respectively. After approximately 6 h, the medium was added with the same volume of culture medium containing each compound at the concentration of 0.06, 0.2, 0.6, 0.2, and 6 µM. The final concentration of DMSO was adjusted to 0.1% in culture condition.
# (§2) All cells were treated with above compounds for 24 h and washed once with Dulbecco’s Phosphate-Buffered Saline without Ca and Mg [D-PBS (–)] (Wako or Nakarai Tesque). In case of using GM03813 or GM24468-derived MNs, cell lysis and reverse transcription were carried out using SuperPrep Cell Lysis & RT Kit for qPCR in accordance with manufacturer’s recommendations (Toyobo, Japan). qPCR was performed using THUNDERBIRD Probe qPCR Mix (Toyobo). The final concentrations of primers and probes were adjusted to 0.4 µM and 0.15 µM, respectively (Supplementary Table 1). Cycle conditions were as follows; 95 °C for 1 min; followed by 40 cycles of denaturation at 95 °C for 15 s; annealing and elongation at 60 °C for 1 min in the ViiA7 RT-PCR system (Thermo Fisher Scientific). The copy numbers of each target were normalized to those of GAPDH.
# [2] = tested on: HTT mRNA; assay: qPCR of HTT transcripts in GM03813 fibroblasts; conditions: for Selectivity HTT /FL-SMN2: EC50 of HTT divided by EC1.5× of FL-SMN2; for pEC50: Homo sapiens, Fibroblast, GM03813 fibroblasts, 24 h, 50% total HTT mRNA reduction, 95% CI in brackets
# Procedure: as §1, §2
# In order to elucidate splicing pattern of cryptic GALC and HTT transcripts, GM03813 cells were seeded at 5 or 15 × 10^3 cells/well in 96-well plates and incubated with TEC-1 or SMN-C3 (0.03, 0.1, 0.3, 0.1, 1 or 3 µM) for 6 h under final concentration of 200 µg/ml CHX. For FOXM1, GM03813 fibroblasts were plated at 1.5 × 10^4 cells/well in 96-well plate and incubated with TEC-1, SMN-C3 or risdiplam (0.03, 0.1, 0.3 and 1 µM) for 24 h.
# GM03813 fibroblasts and GM24468-derived MNs were seeded at 1.5 × 10^4 and 4 × 10^4 cells/well in 96-well plates and were treated with TEC-1 or SMN-C3 for 72 h at the concentration of 0.01, 0.03, 0.1, 0.3, 1, or 3 µM. After 72 h exposure of compound, GM24468 derived MNs and GM03813 fibroblasts were washed once with D-PBS (-), lysed with RIPA buffer (Wako) containing cOmplete (Sigma-Aldrich) and PhosSTOP (Sigma-Aldrich). The lysates were spun at 15,000 rpm for 15 min at 4 °C, and the supernatants were collected. The protein concentration was quantified with BCA kit (Wako). The lysates, adjusted to have the same protein amount, were mixed with NuPAGE LDS sample buffer containing DTT and heated at 95 °C for 5 min. Except for HTT detection, each sample (2 µg total protein/lane) was loaded Perfect NT Gel 7.5–15% gel (DRC, Japan) and run at 150 V for 60–70 min with Tris/glycine/SDS running buffer (BIO-RAD, USA). The proteins were transferred from the gel to Immobilon-P PVDF Membrane (Millipore, USA) with a transfer solution comprising 10% methanol and 1 × Novex Tris-glycine transfer buffer at 25 V for 180–240 min using Criterion blotter (BIO-RAD). In the case of HTT detection, each sample (2 µg total protein/lane) was loaded to Perfect NT Gel 7.5–15% gel and run at 150 V for 60–70 min with NuPAGE Tris–Acetate SDS Running Buffer. The proteins were transferred with a transfer solution comprising 10% methanol and 1 × Novex Tris-glycine transfer buffer at 25 V for 960 min using Criterion blotter. The membranes were blocked with Pierce Protein free T20 blocking reagent for 1 h and subsequently incubated with primary antibodies diluted with Can Get Signal Solution 1 (Toyobo) at room temperature for 1 h. Anti-SMN monoclonal antibody (MoAb)[15] […]
# [3] = tested on: Hs683 cells; assay: psychosine/sphingosine ratio in Hs683 cells by LC/MS/MS; conditions: 3000 nM, 12 days, normalized by sphingosine
# Procedure: Hs683 cells were seeded at 1.5 × 10^5 cells/well in 6-well plates and were treated with TEC-1 or SMN-C3 for 12 days. The sample was extracted with EtOH and dried under nitrogen spray. Pellet was completely re-dissolved in EtOH using vortex and ultrasonication. The resulting sample was centrifuged at 15,000 rpm for 5 min at 4 °C. Analytes were separated from the supernatant and quantified by LC/MS/MS as reported by Boutin et al.[48].
# [4] = tested on: FOXM1ΔC; assay: qPCR of FOXM1ΔC variant in GM03813 fibroblasts; conditions: 24 h, 300% total target mRNA increase, 95% CI in brackets
# Procedure: as §1, §2
smiles,measurement,setting,value
"CCN1CCC(c2cc(C)c3nc(-c4cc5c(C)nc(C)cn5n4)cc(=O)n3c2)CC1 [SMN-C3, reference compound]",Selectivity GALC /FL-SMN2,[1],4
same,pEC50,[1],6.34
same,Selectivity HTT /FL-SMN2,[2],4
same,pEC50,[2],6.26
same,increase in psychosine compared to the control,[3],approximately 22 fold
same,EC4.0× FOXM1ΔC,[4],298.5 (248.8–355.8) nM
"Cc1cn2nc(-c3nc4ccc(N5CCN(C)CC5)cc4c(=O)[nH]3)cc2c(C)n1 [TEC-1, 2-(4,6-dimethylpyrazolo[1,5-a]pyrazin-2-yl)-6-(4-methylpiperazin-1-yl)quinazolin-4(3H)-one]",Selectivity GALC /FL-SMN2,[1],> 61
same,pEC50,[1],< 5.52
same,Selectivity HTT /FL-SMN2,[2],> 61
same,inclusion of the HTT cryptic exon or reduction of HTT at the mRNA and full-length protein levels,[2]; GM03813 cells,did not substantially impact
same,pEC50,[2],< 5.52
same,increase in psychosine compared to the control,[3],1.9 fold
same,EC4.0× FOXM1ΔC,[4],1311.6 (864.7–2285.8) nM
